# Test results as given in patent US4160829A, “Antibacterial 1,2,4-oxadiazolylacetamido cephalosporins” (Gist-Brocades N.V., priority 1972, dated 1979).
# Where two headings read alike, the source gives them in different places.
# Legend:
# Esch.coli U 20 [1] = assay: agar serial dilution test; type: cell-based, Escherichia coli; settings: Escherichia coli
# Staph.aureus A 355 [2] = assay: agar serial dilution test; settings: Staphylococcus aureus, A355, 24 h
# Staph.aureus A 2000 = assay: agar serial dilution test; type: cell-based, Staphylococcus aureus; settings: Staphylococcus aureus, A2000, 24 h, read-out: minimal inhibitory concentration (MIC)
# Prot.morg. 2241 [3] = assay: agar serial dilution test; type: cell-based; settings: 24 h, read-out: minimal inhibitory concentration (MIC)
# Bruc.melit. A 488 [4] = assay: microbe, parasite or virus in culture; type: cell-based; settings: Brucella melitensis, 24 h, read-out: minimal inhibitory concentration (MIC)
# Strep. faec. L 80 [5] = assay: agar serial dilution test; type: cell-based, Streptococcus faecalis; settings: Enterococcus faecalis, read-out: minimal inhibitory concentration (MIC)
# Staph.aureus A 2001 = assay: agar serial dilution test; type: cell-based, Staphylococcus aureus; settings: Staphylococcus aureus, A2001, 24 h, agar serial dilution, 24 hours, 37° C.; read-out: minimal inhibitory concentration (MIC)
# Shig.equir. T 3 [6] = assay: agar serial dilution test; type: cell-based; settings: 24 h, 37° C., read-out: minimal inhibitory concentration (MIC)
# Pseud.aerug. 2396 [7] = assay: agar serial dilution test; type: cell-based; settings: read-out: minimal inhibitory concentration (MIC)
# Pseud.aerug. H 10 [8] = assay: agar serial dilution test; type: cell-based; settings: read-out: minimal inhibitory concentration (MIC)
# Prot.mirab. H 3 [9] = assay: agar serial dilution test; type: cell-based, Proteus mirabilis; settings: Proteus mirabilis
# Haem.infl. A 1030 [10] = assay: agar serial dilution test; type: cell-based; settings: 24 hours, 37° C., read-out: minimal inhibitory concentration (MIC)
# [11] = test system: Pseud.aerug. Wyeth A 1058; assay: agar serial dilution test; type: cell-based; settings: read-out: minimal inhibitory concentration (MIC)
# Prot.mirab. L 93 [12] = assay: agar serial dilution test; type: cell-based, Proteus mirabilis; settings: Proteus mirabilis
# Past.multo. A 723 [13] = assay: agar serial dilution test; type: cell-based, Pasteurella multocida; settings: Pasteurella multocida, read-out: minimal inhibitory concentration (MIC)
# Dipl.pneum. L 54 [14] = assay: agar serial dilution test; type: cell-based, Diplococcus pneumoniae; settings: Streptococcus pneumoniae, read-out: minimal inhibitory concentration (MIC)
# Kleb.pneum. A 809 [15] = assay: agar serial dilution test; type: cell-based, Klebsiella pneumoniae; settings: Klebsiella pneumoniae, read-out: minimal inhibitory concentration (MIC)
# Strep.haem. A 266 [16] = assay: agar serial dilution test; type: cell-based, Streptococcus haemolyticus; settings: Streptococcus, read-out: minimal inhibitory concentration (MIC)
# Staph.aureus A 321 [17] = assay: agar serial dilution test; type: cell-based, Staphylococcus aureus; settings: Staphylococcus aureus, A321, 24 h, read-out: minimal inhibitory concentration (MIC)
# Salm.dubl. P 43 [18] = assay: agar serial dilution test; type: cell-based, Salmonella dublin; settings: Salmonella enterica, read-out: minimal inhibitory concentration (MIC)
# Bac.Subt.ATCC 6633 [19] = assay: agar serial dilution test; type: cell-based, Bacillus subtilis; settings: Bacillus subtilis, ATCC6633, 24 h, read-out: minimal inhibitory concentration (MIC)
# Haem.infl. A 1030 [20] = assay: micro serial dilution test; type: cell-based; settings: 18 h, read-out: minimal inhibitory concentration (MIC)
# Prot.rettg. A 821 [21] = assay: agar serial dilution test; type: cell-based, Proteus rettgeri; settings: Providencia rettgeri, 24 h, read-out: minimal inhibitory concentration (MIC)
# Salm.typh. R 127 = assay: micro serial dilution test; type: cell-based; settings: micro serial dilution (in brackets), about 18 hours, 30° C. or 37° C.; read-out: minimal inhibitory concentration (MIC)
# Excerpt: (§1) Two drops of a stock solution of the test compound (antibiotic) in a known concentration were brought into the first hole of a test plate with 9 numbered holes with a sterile Pasteur pipette. After rinsing this pipette three times with a physiological NaCl-solution, two drops of a stock solution of the test organism in a culture medium were brought in all the holes except for hole 8. In the first hole, the solution of the tested compound had been half diluted, then by stirring the liquid in the first hole and adding two drops of this mixture to the second hole and so on until hole 8, dilutions of the test compound solution were obtained in geometrical progression. The hole 9 contained no antibiotic and served for checking the growth of the testogranism in a blank medium. The test plate was incubated at 30° C. or 37° C. for about 18 hours.
# Strep. faec. L 80 [22] = assay: micro serial dilution test; type: cell-based, Streptococcus faecalis; settings: Enterococcus faecalis; micro serial dilution (in brackets), about 18 hours, 30° C. or 37° C.; read-out: minimal inhibitory concentration (MIC)
# Strep.haem. A 266 [23] = assay: micro serial dilution test; type: cell-based, Streptococcus haemolyticus; settings: Streptococcus; micro serial dilution (in brackets), about 18 hours, 30° C. or 37° C.; read-out: minimal inhibitory concentration (MIC)
# Shig.equir. T 3 [24] = assay: micro serial dilution test; type: cell-based; settings: micro serial dilution (in brackets), about 18 hours, 30° C. or 37° C.; read-out: minimal inhibitory concentration (MIC)
# Excerpt: as §1
# Past.multo. A 723 [25] = assay: micro serial dilution test; type: cell-based; settings: Pasteurella multocida; micro serial dilution (in brackets), about 18 hours, 30° C. or 37° C.; read-out: minimal inhibitory concentration (MIC)
# Dipl.pneum. L 54 [26] = assay: micro serial dilution test; type: cell-based, Diplococcus pneumoniae; settings: Streptococcus pneumoniae; micro serial dilution (in brackets), about 18 hours, 30° C. or 37° C.; read-out: minimal inhibitory concentration (MIC)
# Prot.rettg. A 821 [27] = assay: micro serial dilution test; type: cell-based, Proteus rettgeri; settings: Providencia rettgeri; micro serial dilution (in brackets), about 18 hours, 30° C. or 37° C.; read-out: minimal inhibitory concentration (MIC)
# Bac.Subt.ATCC 6633 [28] = assay: micro serial dilution test; type: cell-based; settings: Bacillus subtilis, ATCC6633; micro serial dilution (in brackets), about 18 hours, 30° C. or 37° C.; read-out: minimal inhibitory concentration (MIC)
# Esch.coli U 20 [29] = assay: micro serial dilution test; type: cell-based; settings: Escherichia coli, U20; micro serial dilution (in brackets), about 18 hours, 30° C. or 37° C.; read-out: minimal inhibitory concentration (MIC)
# Pseud.aerug. 2396 [30] = assay: micro serial dilution test; type: cell-based; settings: micro serial dilution (in brackets), about 18 hours, 30° C. or 37° C.; read-out: minimal inhibitory concentration (MIC)
# Staph.aureus A 355 [31] = assay: micro serial dilution test; type: cell-based, Staphylococcus aureus; settings: Staphylococcus aureus, A355; micro serial dilution (in brackets), about 18 hours, 30° C. or 37° C.; penicillinase-producing strain; read-out: minimal inhibitory concentration (MIC)
# Salm.dubl. P 43 [32] = assay: micro serial dilution test; type: cell-based, Salmonella dublin; settings: Salmonella enterica; micro serial dilution (in brackets), about 18 hours, 30° C. or 37° C.; read-out: minimal inhibitory concentration (MIC)
# Prot.morg. 2241 [33] = assay: micro serial dilution test; type: cell-based; settings: micro serial dilution (in brackets), about 18 hours, 30° C. or 37° C.; read-out: minimal inhibitory concentration (MIC)
# Prot.mirab. H 3 [34] = assay: micro serial dilution test; type: cell-based; settings: Proteus mirabilis; micro serial dilution (in brackets), about 18 hours, 30° C. or 37° C.; read-out: minimal inhibitory concentration (MIC)
# Staph.aureus A 321 [35] = assay: micro serial dilution test; type: cell-based; settings: Staphylococcus aureus, A321; micro serial dilution (in brackets), about 18 hours, 30° C. or 37° C.; read-out: minimal inhibitory concentration (MIC)
# [36] = test system: Pseud.aerug. Wyeth A 1058; assay: micro serial dilution test; type: cell-based; settings: micro serial dilution (in brackets), about 18 hours, 30° C. or 37° C.; read-out: minimal inhibitory concentration (MIC)
# Prot.mirab. L 93 [37] = assay: micro serial dilution test; type: cell-based; settings: Proteus mirabilis; micro serial dilution (in brackets), about 18 hours, 30° C. or 37° C.; read-out: minimal inhibitory concentration (MIC)
# Pseud.aerug. H 10 [38] = assay: micro serial dilution test; type: cell-based; settings: micro serial dilution (in brackets), about 18 hours, 30° C. or 37° C.; read-out: minimal inhibitory concentration (MIC)
# Bruc.melit. A 488 [39] = assay: microbe, parasite or virus in culture; type: cell-based; settings: Brucella melitensis, 18 h, read-out: minimal inhibitory concentration (MIC)
# Kleb.pneum. A 809 [40] = assay: micro serial dilution test; type: cell-based; settings: Klebsiella pneumoniae; micro serial dilution (in brackets), about 18 hours, 30° C. or 37° C.; read-out: minimal inhibitory concentration (MIC)
# [41] = agar serial dilution, 24 hours, 37° C.
# [42] = agar serial dilution, 24 hours, 37° C., read-out: minimal inhibitory concentration (MIC)
# [43] = micro serial dilution (in brackets), about 18 hours, 30° C. or 37° C.
# [44] = 24 h, read-out: minimal inhibitory concentration (MIC), agar serial dilution, 24 hours, 37° C.
smiles,measurement,setting,value
"CC1(C)S[C@@H]2[C@H](NC(=O)[C@H](N)c3ccccc3)C(=O)N2[C@H]1C(=O)O [Ampicillin, reference compound]",MIC,"Esch.coli U 20 [1]; U20, agar serial dilution, 24 hours, 37° C., read-out: minimal inhibitory concentration (MIC)",3 µg/mL
same,MIC,"Staph.aureus A 355 [2]; read-out: minimal inhibitory concentration (MIC), agar serial dilution, 24 hours, 37° C., penicillinase-producing strain",6 µg/mL
same,MIC,Staph.aureus A 2000; [41],1.5 µg/mL
same,MIC,Prot.morg. 2241 [3]; [41],12.5 µg/mL
same,MIC,Bruc.melit. A 488 [4],1 µg/mL
same,MIC,Strep. faec. L 80 [5]; [41],1 µg/mL
same,MIC,Staph.aureus A 2001,1 µg/mL
same,MIC,Shig.equir. T 3 [6],1 µg/mL
same,MIC,Pseud.aerug. 2396 [7]; [41],12.5 µg/mL
same,MIC,Pseud.aerug. H 10 [8]; [41],125 µg/mL
same,MIC,Prot.mirab. H 3 [9]; [42],0.9 µg/mL
same,MIC,Haem.infl. A 1030 [10],< 125 µg/mL
same,MIC,[11]; [41],> 100 µg/mL
same,MIC,Prot.mirab. L 93 [12]; [42],0.15 µg/mL
same,MIC,Past.multo. A 723 [13]; [41],0.25 µg/mL
same,MIC,Dipl.pneum. L 54 [14]; [41],0.06 µg/mL
same,MIC,Kleb.pneum. A 809 [15]; [41],25 µg/mL
same,MIC,Strep.haem. A 266 [16]; [41],< 0.015 µg/mL
same,MIC,Staph.aureus A 321 [17]; [41],0.12 µg/mL
same,MIC,Salm.dubl. P 43 [18]; [41],1.5 µg/mL
same,MIC,Bac.Subt.ATCC 6633 [19]; [41],0.03 µg/mL
same,MIC,Haem.infl. A 1030 [20]; [43],0.5 µg/mL
same,MIC,Prot.rettg. A 821 [21]; [41],3 µg/mL
"CC1=C(C(=O)O)N2C(=O)[C@@H](NC(=O)[C@H](N)c3ccccc3)[C@H]2SC1 [Cefalexin, reference compound]",MIC,"Esch.coli U 20 [1]; U20, 24 h, read-out: minimal inhibitory concentration (MIC), agar serial dilution, 24 hours, 37° C.",12.5 µg/mL
same,MIC,Staph.aureus A 355 [2]; read-out: minimal inhibitory concentration (MIC),12.5 µg/mL
same,MIC,Salm.typh. R 127,6 µg/mL
same,MIC,Staph.aureus A 2000,12.5 µg/mL
same,MIC,Prot.morg. 2241 [3],> 100 µg/mL
same,MIC,Bruc.melit. A 488 [4],6 µg/mL
same,MIC,Strep. faec. L 80 [5]; 24 h,100 µg/mL
same,MIC,Shig.equir. T 3 [6],1.5 µg/mL
same,MIC,Pseud.aerug. 2396 [7]; 24 h,> 100 µg/mL
same,MIC,Pseud.aerug. H 10 [8]; 24 h,> 100 µg/mL
same,MIC,Prot.mirab. H 3 [9]; [44],25 µg/mL
same,MIC,[11]; 24 h,> 100 µg/mL
same,MIC,Prot.mirab. L 93 [12]; [44],12.5 µg/mL
same,MIC,Past.multo. A 723 [13]; 24 h,3 µg/mL
same,MIC,Dipl.pneum. L 54 [14]; 24 h,3 µg/mL
same,MIC,Kleb.pneum. A 809 [15]; 24 h,3 µg/mL
same,MIC,Strep.haem. A 266 [16]; 24 h,0.25 µg/mL
same,MIC,Staph.aureus A 321 [17],1.5 µg/mL
same,MIC,Salm.dubl. P 43 [18]; 24 h,6 µg/mL
same,MIC,Bac.Subt.ATCC 6633 [19],0.5 µg/mL
same,MIC,Haem.infl. A 1030 [20],125 µg/mL
same,MIC,Prot.rettg. A 821 [21],12.5 µg/mL
CC1(C)S[C@@H]2[C@H](NC(=O)Cc3ccccc3)C(=O)N2[C@H]1C(=O)O [Penicillin G],MIC,Strep. faec. L 80 [22],4 µg/mL
same,MIC,Strep.haem. A 266 [23],0.013 µg/mL
same,MIC,Shig.equir. T 3 [24],0.25 µg/mL
same,MIC,Past.multo. A 723 [25],0.2 µg/mL
same,MIC,Dipl.pneum. L 54 [26],0.13 µg/mL
same,MIC,Prot.rettg. A 821 [27],25 µg/mL
same,MIC,Bac.Subt.ATCC 6633 [28],0.006 µg/mL
same,MIC,Esch.coli U 20 [29],40 µg/mL
same,MIC,Pseud.aerug. 2396 [30],> 100 µg/mL
same,MIC,Staph.aureus A 355 [31],10 µg/mL
same,MIC,Salm.dubl. P 43 [32],5 µg/mL
same,MIC,Prot.morg. 2241 [33],> 100 µg/mL
same,MIC,Prot.mirab. H 3 [34],7.5 µg/mL
same,MIC,Staph.aureus A 321 [35],0.03 µg/mL
same,MIC,[36],100 µg/mL
same,MIC,Prot.mirab. L 93 [37],0.5 µg/mL
same,MIC,Pseud.aerug. H 10 [38],> 100 µg/mL
same,MIC,Haem.infl. A 1030 [20]; [43],0.5 µg/mL
same,MIC,Bruc.melit. A 488 [39],0.25 µg/mL
same,MIC,Kleb.pneum. A 809 [40],100 µg/mL
